The record followed here is patent publication US7384911B2, “Peptides having antimicrobial properties and compositions containing them, notably for the preservation of foodstuffs” (priority 2002, dated 2008).

The subject of assay [1] is Bacillus subtilis. It is filed as cell-based. Particulars: interval [a]-[b], tested spheniscin-2 0.2-100 μM, MSI-94 0.2-10 μM. As for the experimental part:
(§1) The bacteria to be tested were suspended in a suitable nutritive medium of the “poor broth” type corresponding to a solution of bactotryptone at 10 g/l with the addition of NaCl 5 g/l in ultrapure water.
(§2) Antimicrobial activities were detected by a growth inhibition test in microtitration plates (Hétru and Bulet, 1997). One deposited […] of each fraction collected in mictrotitration plates in the presence of 90 μl of culture medium containing the microorganisms (at a final concentration equivalent to 1 mDO at 600 nm).
(§3) For the bacteria and the yeast, incubation was performed at 30° C. for 12-24 h under agitation. The growth of the microorganisms was measured by monitoring the absorbance at 600 nm by means of a spectrophotometer reader of microtitration plates.
(§4) The antimicrobial activities expressed in minimal inhibitory concentration (MIC) of spheniscin 2 (concentrations comprised between 0.2 μM and 100 μM) were determined against bacteria, yeasts and fungi using a growth inhibition test in liquid medium in microtitration plates (for the detailed protocol see example 2.4 as well as Hétru and Bulet, 1997).
(§5) The minimal growth inhibitory concentration (MIC) corresponds to the interval [a]-[b] in which [a] is the strongest concentration tested for which the microorganism grows and [b] is the weakest concentration tested starting at which there is 100% inhibition of growth of the microorganism (Casteels and Tempst, 1994). The control peptides were MSI-94 (a peptide of the mangainin family stemming from the skin of the batrachian Xenopus laevis and presenting a broad spectrum of antimicrobial activity; Maloy and Kari, 1995) for testing against the bacteria and yeasts; and thanatin (an antifungal peptide stemming from the insect Podisus maculiventris; Fehlbaum et al., 1996) for testing against the filamentous fungi.

Assay [2] deals with Klebsiella pneumoniae. It is filed as cell-based. As to conditions: interval [a]-[b], tested spheniscin-2 0.2-100 μM, MSI-94 0.2-10 μM. The protocol:
as §1, §2, §3, §4, §5

Assay [3] deals with Pseudomonas aeruginosa ATCC 82118. As to the kind of experiment: Bactericidal or bacteriostatic effect, spreading on Petri dishes and counting colonies. The class given is cell-based. As to conditions: colonies counted after 24 h of incubation, Yes/No. As for the experimental part:
(§6) The bactericidal or bacteriostatic effect of the peptide was determined by spreading on Petri dishes and counting the colonies present after 24 h of incubation.

The subject of the next assay is S. haemolyticus. The assay is described as above. The class given is cell-based. As to conditions: colonies counted after 24 h of incubation, Yes/No. The protocol:
as §6

A further assay relates to Micrococcus luteus. The assay is described as above. It is filed as cell-based. Particulars: colonies counted after 24 h of incubation, Yes/No. As for the experimental part:
as §6

The test system of a further assay is Salmonella typhimurium. Described as above. It is filed as cell-based. Particulars: colonies counted after 24 h of incubation, Yes/No. The protocol: as §6
In a further assay the test system is Nocardia asteroides. The assay is described as above. It is filed as cell-based. As to conditions: colonies counted after 24 h of incubation, Yes/No. As for the experimental part: as §6
For a further assay, the system named is Staphylococcus aureus. Described as above. Particulars: colonies counted after 24 h of incubation, Yes/No. It is filed as cell-based. The protocol:
as §6

For assay [4], the system named is Vibrio metshnikovii NCTC 8483. Described as above. It is filed as cell-based. As to conditions: colonies counted after 24 h of incubation, Yes/No. The protocol:
as §6

For a further assay, the system named is Escherichia coli SBS 363. The description is as above. The class given is cell-based. As to conditions: colonies counted after 24 h of incubation, Yes/No. The protocol: as §6
Another assay concerns B. megaterium. The assay is described as above. It is filed as cell-based. Particulars: colonies counted after 24 h of incubation, Yes/No. The protocol: as §6
Assay [5] has as its system Bacillus subtilis. The description is as above. It is filed as cell-based. Particulars: colonies counted after 24 h of incubation, Yes/No. As for the experimental part:
as §6

Assay [6] deals with Klebsiella pneumoniae. Described as above. The class given is cell-based. Particulars: colonies counted after 24 h of incubation, Yes/No. The protocol:
as §6

Assay [7] deals with V. anguillarum ATCC 19264. The description is as above. The class given is cell-based. As to conditions: colonies counted after 24 h of incubation, Yes/No. As for the experimental part:
as §6

For another assay, the system named is B. cereus ATCC 11778. It is filed as cell-based, Bacillus cereus. As to conditions: interval [a]-[b], tested spheniscin-2 0.2-100 μM, MSI-94 0.2-10 μM. The protocol:
as §1, §2, §3
(§7) The antimicrobial activities expressed in minimal inhibitory concentration (MIC) of spheniscin 2 (concentrations comprised between 0.2 μM and 100 μM) were determined against bacteria, yeasts and fungi using a growth inhibition test in liquid medium in microtitration plates (for the detailed protocol see example 2.4 as well as Hétru and Bulet, 1997). […]

The test system of a further assay is S. saprophyticus. The class given is cell-based, Staphylococcus saprophyticus. As to conditions: interval [a]-[b], tested spheniscin-2 0.2-100 μM, MSI-94 0.2-10 μM. The protocol: as §1, §2, §3, §7
Another assay deals with Escherichia coli 1106. It is filed as cell-based. As for the experimental part: (§8) Strains of microorganisms capable of growing at such pH values were selected in advance: these were Pseudomonas aeruginosa and Escherichia coli 1106 (Gram-negative bacteria). The tests of antimicrobial activity were performed in liquid medium in microtitration plates (for the detailed protocol see example 2.4 as well as Hétru and Bulet, 1997). The pH of the liquid medium used was adjusted with hydrochloric acid for each test.
(§9) Two strains of Gram-negative bacteria (Pseudomonas aeruginosa and Escherichia coli 1106) capable of growing in the range of pH values to be tested were selected. The range of pH values tested corresponded to the pH variations observed in the well preserved stomach content of the incubating king penguin (Thouzeau et al., 2003).

Another assay relates to Pseudomonas aeruginosa. It is filed as cell-based. The protocol:
as §8, §9

Like-named read-outs stand apart in the source and are kept apart here. Residues, ends and D or L forms follow the SMILES beside them. A value given as a limit tells only on which side of the number the result lay.

For `CC[C@H](C)[C@@H]1NC(=O)[C@@H]2CCCN2C(=O)[C@H]([C@@H](C)CC)NC(=O)[C@H](CO)NC(=O)[C@@H]2CCCN2C(=O)[C@H](Cc2ccccc2)NC(=O)[C@H](CCCNC(=N)N)NC(=O)[C@@H]2CSSC[C@@H](C(=O)N[C@@H](CCCNC(=N)N)C(=O)N[C@@H](CCCNC(=N)N)C(=O)N[C@H](C(=O)N[C@@H](Cc3c[nH]c4ccccc34)C(=O)O)C(C)C)NC(=O)[C@@H]3CSSC[C@H](NC(=O)[C@H](CC(C)C)NC(=O)CNC(=O)[C@H](Cc4ccccc4)NC(=O)[C@@H](N)CO)C(=O)N[C@@H](CCCNC(=N)N)C(=O)N[C@@H](CC(C)C)C(=O)N[C@@H](CCCNC(=N)N)C(=O)N[C@@H](CCCNC(=N)N)C(=O)NCC(=O)N[C@@H](Cc4ccccc4)C(=O)N[C@@H](CSSC[C@H](NC(=O)[C@H](CCCNC(=N)N)NC(=O)CNC1=O)C(=O)N[C@@H](CO)C(=O)N[C@@H](CCCNC(=N)N)C(=O)N[C@@H](Cc1ccccc1)C(=O)N[C@@H](C(C)C)C(=O)N[C@@H](CCC(N)=O)C(=O)N3)C(=O)N[C@@H](C)C(=O)N[C@@H](CCCNC(=N)N)C(=O)NCC(=O)N[C@@H](CCCNC(=N)N)C(=O)N2` [spheniscin-2] (HELM PEPTIDE1{S.F.G.L.C.R.L.R.R.G.F.C.A.R.G.R.C.R.F.P.S.I.P.I.G.R.C.S.R.F.V.Q.C.C.R.R.V.W}$PEPTIDE1,PEPTIDE1,5:R3-33:R3|PEPTIDE1,PEPTIDE1,12:R3-27:R3|PEPTIDE1,PEPTIDE1,17:R3-34:R3$$$V2.0; N-terminus and C-terminus assumed), the MIC lay within 0.8 to 1.5 µM in the assay on Bacillus subtilis [1], 50 to 100 µM in the assay on Klebsiella pneumoniae [2], 3 to 6 µM against B. cereus ATCC 11778 and 1.5 to 3 µM in the assay on S. saprophyticus. In addition, the “Bactericidal effect of spheniscin-2” value is “No” in assay [3]; “Yes” with S. haemolyticus; “Yes” with Micrococcus luteus; “No” in the assay on Salmonella typhimurium; “Yes” in the assay with Nocardia asteroides; “Yes” in the assay on Staphylococcus aureus. The “Bactericidal effect of spheniscin-2” value is listed as “Yes” in assay [4]; “No” in the assay with Escherichia coli SBS 363; “Yes” in the assay on B. megaterium; “Yes” in the assay with Bacillus subtilis [5]; “No” with Klebsiella pneumoniae [6]; “No” in assay [7]. In addition, the “MIC (μM) after 48 h of incubation” value in the assay with Escherichia coli 1106 (pH 4.2) was 6 to 12 µM; in the assay on Escherichia coli 1106 (pH 5.2) it was 25 to 50 µM; with Escherichia coli 1106 (pH 6.1), 6 to 12 µM; against Escherichia coli 1106 (pH 7.2), 1.5 to 3 µM; against Pseudomonas aeruginosa (pH 4.2), above 100 µM; in the assay on Pseudomonas aeruginosa (pH 7.2), 6 to 12 µM.

What is called MIC is the smallest concentration in the dilution series that meets the test's criterion for growth inhibition.
